Bridge positions count the residues as written; N and C are the ends. Peptide text beside a SMILES is read from it.
Tests used:
[1] = tested on: Melanin-concentrating hormone receptor (Synbranchus marmoratus); experiment: Melanin concentrating hormone(MCH) activity, causes melanosome aggregation within integumental fish melanocytes and lightening of the skin; d = Inactive at 10e-6 M
[2] = tested on: melanocortin receptor (frog); experiment: Melanosome dispersion (skin darkening) within melanocytes (Alpha-MSH-like activity), measured on tetrapod skin; Inactive at 10e-5
[3] = tested on: melanocortin receptor (frog); experiment: Melanosome dispersion (skin darkening) within melanocytes (Alpha-MSH-like activity), measured on tetrapod skin; e = Inactive at 10e-5
[4] = tested on: melanocortin receptor (frog); experiment: Melanosome dispersion (skin darkening) within melanocytes (Alpha-MSH-like activity), measured on tetrapod skin; e =Inactive at 10e-5
[5] = tested on: Melanin-concentrating hormone receptor (Synbranchus marmoratus); experiment: Melanin concentrating hormone(MCH) activity, causes melanosome aggregation within integumental fish melanocytes and lightening of the skin; d = Inactive at 10e-6 M; remark: listed apart in the source

| SMILES | EC50 [1] | further results |
| --- | --- | --- |
| CC(C)[C@H](NC(=O)[C@H](CCC(=O)O)NC(=O)[C@H](Cc1c[nH]c2ccccc12)NC(=O)[C@@H]1CSSC[C@H](N)C(=O)N[C@@H](Cc2ccc(O)cc2)C(=O)N[C@@H](CCCN=C(N)N)C(=O)N2CCC[C@H]2C(=O)N1)C(=O)O (H-CYRPCWEV-OH; disulfide 1-5) | – | EC50 [2]: Not Active |
| CC(C)[C@H](NC(=O)[C@H](CCC(=O)O)NC(=O)[C@H](Cc1c[nH]c2ccccc12)NC(=O)[C@@H]1CSSC[C@H](N)C(=O)N[C@@H](CCCN=C(N)N)C(=O)N[C@@H](C(C)C)C(=O)N[C@@H](Cc2ccc(O)cc2)C(=O)N[C@@H](CCCN=C(N)N)C(=O)N2CCC[C@H]2C(=O)N1)C(=O)O (H-CRVYRPCWEV-OH; disulfide 1-7) | – | EC50 [2]: Not Active |
| CSCC[C@H](NC(=O)[C@H](C)N)C(=O)N[C@H](C(=O)N[C@H]1CSSC[C@@H](C(=O)N[C@@H](Cc2c[nH]c3ccccc23)C(=O)N[C@@H](CCC(=O)O)C(=O)N[C@H](C(=O)O)C(C)C)NC(=O)[C@@H]2CCCN2C(=O)[C@H](CCCN=C(N)N)NC(=O)[C@H](Cc2ccc(O)cc2)NC(=O)[C@H](C(C)C)NC(=O)[C@H](CCCN=C(N)N)NC1=O)C(C)C (H-AMVCRVYRPCWEV-OH; disulfide 4-10) | – | EC50 [3]: Not Active |
| CC(C)[C@H](NC(=O)[C@H](CCC(=O)O)NC(=O)[C@H](Cc1c[nH]c2ccccc12)NC(=O)[C@@H]1CSSC[C@H](N)C(=O)NCC(=O)N[C@@H](CCCN=C(N)N)C(=O)N[C@@H](C(C)C)C(=O)N[C@@H](Cc2ccc(O)cc2)C(=O)N[C@@H](CCCN=C(N)N)C(=O)N2CCC[C@H]2C(=O)N1)C(=O)O (H-CGRVYRPCWEV-OH; disulfide 1-8) | Not Active | – |
| CSCC[C@H](NC(=O)[C@H](C)N)C(=O)N[C@H]1CSSC[C@@H](C(=O)N[C@@H](Cc2c[nH]c3ccccc23)C(=O)N[C@@H](CCC(=O)O)C(=O)N[C@H](C(=O)O)C(C)C)NC(=O)[C@@H]2CCCN2C(=O)[C@H](CCCN=C(N)N)NC(=O)[C@H](Cc2ccc(O)cc2)NC(=O)[C@H](C(C)C)NC(=O)[C@H](CCCN=C(N)N)NC(=O)CNC1=O (H-AMCGRVYRPCWEV-OH; disulfide 3-10) | Not Active | EC50 [4]: Not Active |
| CSCC[C@H](NC(=O)[C@H](C)NC(=O)[C@H](CCCN=C(N)N)NC(=O)[C@H](CCSC)NC(=O)[C@@H](NC(=O)[C@@H](N)CC(=O)O)[C@@H](C)O)C(=O)N[C@H](C(=O)NCC(=O)N[C@@H](CCCN=C(N)N)C(=O)N[C@H]1CSSC[C@@H](C(=O)N[C@@H](Cc2c[nH]c3ccccc23)C(=O)N[C@@H](CCC(=O)O)C(=O)N[C@H](C(=O)O)C(C)C)NC(=O)[C@@H]2CCCN2C(=O)[C@H](CCCN=C(N)N)NC(=O)[C@H](Cc2ccc(O)cc2)NC1=O)C(C)C (H-DTMRAMVGRCYRPCWEV-OH; disulfide 10-14) | – | EC50 [5]: Not Active |

The next lines start with results.

| EC50 [1] | SMILES | further results |
| --- | --- | --- |
| Not Active | CSCC[C@H](NC(=O)[C@H](C)N)C(=O)N[C@H](C(=O)NCC(=O)N[C@@H](CCCN=C(N)N)C(=O)N[C@H]1CSSC[C@@H](C(=O)N[C@@H](Cc2c[nH]c3ccccc23)C(=O)N[C@@H](CCC(=O)O)C(=O)N[C@H](C(=O)O)C(C)C)NC(=O)[C@@H]2CCCN2C(=O)[C@H](CCCN=C(N)N)NC(=O)[C@H](Cc2ccc(O)cc2)NC1=O)C(C)C (H-AMVGRCYRPCWEV-OH; disulfide 6-10) | – |
| Not Active | CSCC[C@H](NC(=O)[C@H](C)NC(=O)[C@H](CCCN=C(N)N)NC(=O)[C@H](CCSC)NC(=O)[C@@H](NC(=O)[C@@H](N)CC(=O)O)[C@@H](C)O)C(=O)N[C@H](C(=O)N[C@H]1CSSC[C@@H](C(=O)N[C@@H](Cc2c[nH]c3ccccc23)C(=O)N[C@@H](CCC(=O)O)C(=O)N[C@H](C(=O)O)C(C)C)NC(=O)[C@@H]2CCCN2C(=O)[C@H](CCCN=C(N)N)NC(=O)[C@H](Cc2ccc(O)cc2)NC(=O)[C@H](C(C)C)NC(=O)[C@H](CCCN=C(N)N)NC1=O)C(C)C (H-DTMRAMVCRVYRPCWEV-OH; disulfide 8-14) | – |
| Not Active | CSCC[C@H](NC(=O)[C@H](C)NC(=O)[C@H](CCCN=C(N)N)NC(=O)[C@H](CCSC)NC(=O)[C@@H](NC(=O)[C@@H](N)CC(=O)O)[C@@H](C)O)C(=O)N[C@H]1CSSC[C@@H](C(=O)N[C@@H](Cc2c[nH]c3ccccc23)C(=O)N[C@@H](CCC(=O)O)C(=O)N[C@H](C(=O)O)C(C)C)NC(=O)[C@@H]2CCCN2C(=O)[C@H](CCCN=C(N)N)NC(=O)[C@H](Cc2ccc(O)cc2)NC(=O)[C@H](C(C)C)NC(=O)[C@H](CCCN=C(N)N)NC(=O)CNC1=O (H-DTMRAMCGRVYRPCWEV-OH; disulfide 7-14) | – |
